Data from patent US10357514B2, “Treatment of cancer using anti-CD19 Chimeric Antigen Receptor” (The Trustees of the University of Pennsylvania, priority 2014, dated 2019).
“Also recorded” adds a separate entry of the source. Marks after values point to notes of the source that are not given here.

Columns and labels:
[1] = tested on: A/H3N2 strain A/Victoria/361/11; assay: HI titer and seroconversion to heterologous influenza strain; format: in vivo, human; conditions: for Percentage of subjects who seroconvert to heterologous strain A/H3N2 A/Victoria/361/11: 4 weeks after seasonal influenza vaccination
[2] = tested on: 3 influenza vaccine strains; assay: Primary endpoint: HI GMT ratio relative to placebo in at least 2 out of 3 influenza vaccine strains; format: in vivo, human; conditions: for primary endpoint (>=1.2-fold GMT increase relative to placebo in at least 2 of 3 strains): ITT population
Source text: The primary analysis of geometric mean titer ratios was done using a normal Bayesian regression model with non-informative priors. This model was fitted to each antibody titer on the log scale. The primary outcome in each model was the Day 84 measurement. The Day 63 measurement was included in the outcome vector. The model fitted using SAS 9.2 proc mixed with the prior statement. The covariance structure of the matrix was considered as unstructured (option type=UN). A flat prior was used. For the secondary analysis of seroconversion rates, logistic regression was used.
The intention to treat population was defined as all subjects who received at least one full dose of study drug and who had no major protocol deviations impacting efficacy data. 199 out of the total of 218 subjects enrolled in the study were in the intention to treat population.
The ability of RAD001 to improve immune function in elderly volunteers was evaluated by measuring the serologic response to the 2012 seasonal influenza vaccine. The hemagglutination inhibition (HI) geometric mean titers (GMT) to each of the 3 influenza vaccine strains at baseline and 4 weeks after influenza vaccination are provided in Table 10. The primary analysis variable was the HI GMT ratio (4 weeks post vaccination/baseline). […] This endpoint was chosen because a 1.2-fold increase in the influenza GMT ratio induced by the MF-59 vaccine adjuvant was associated with a decrease in influenza illness (Iob, A et al. (2005) Epidemiol Infect 133:687-693).
Elderly volunteers >=65 years of age were randomized to one of the 3 RAD001 treatment groups (50 subjects per arm) or placebo (20 subjects per arm). […] Response to influenza vaccination was assessed by measuring the geometric mean titers (GMTs) by hemagglutination inhibition assay to the 3 influenza strains (H1N1, H3N2 and B influenza subtypes) in the influenza vaccine 4 weeks after vaccination. […] Antibody titers to 7 of the serotypes were measured in our subjects.

[3] = tested on: pneumococcal serotypes; assay: Antibody titers after pneumococcal vaccination (Pneumovax 23); format: in vivo, human; conditions: 7 serotypes measured; all 3 RAD cohorts
Description: Elderly volunteers >=65 years of age were randomized to one of the 3 RAD001 treatment groups (50 subjects per arm) or placebo (20 subjects per arm). Subjects were treated with study drug for 6 weeks, given a 2 week break, and then received influenza (Aggrippal, Novartis) and pneumoccal (Pneumovax 23, Merck), vaccinations. Response to influenza vaccination was assessed by measuring the geometric mean titers (GMTs) by hemagglutination inhibition assay to the 3 influenza strains (H1N1, H3N2 and B influenza subtypes) in the influenza vaccine 4 weeks after vaccination. The primary endpoints of the study were (1) safety and tolerability and (2) a 1.2 fold increase in influenza titers as compared to placebo in 2/3 of the influenza vaccine strains 4 weeks after vaccination. This endpoint was chosen because a 1.2 fold increase in influenza titers is associated with a decrease in influenza illness post vaccination, and therefore is clinically relevant. […] The pneumococcal vaccine contains antigens from 23 pneumococcal serotypes. Antibody titers to 7 of the serotypes were measured in our subjects.

[4] = tested on: P70 S6K; assay: Inhibition of P70 S6K activity in HeLa cells in vitro; conditions: Homo sapiens, read-out: % P70 S6K inhibition
[5] = Adverse event assessment in elderly volunteers, randomized placebo-controlled trial; conditions: for Treatment-related AE incidence: Blood cholesterol increased / Treatment-related AE incidence: Conjunctivitis / Treatment-related AE incidence: Diarrhea / Treatment-related AE incidence: Dry mouth / Treatment-related AE incidence: Dyspepsia / Treatment-related AE incidence: Erythema / Treatment-related AE incidence: Fatigue / Treatment-related AE incidence: Headache / Treatment-related AE incidence: Insomnia / Treatment-related AE incidence: Limb discomfort / Treatment-related AE incidence: Low density lipoprotein increased / Treatment-related AE incidence: Mouth ulceration / Treatment-related AE incidence: Mucosal inflammation / Treatment-related AE incidence: Neutropenia / Treatment-related AE incidence: Oral pain / Treatment-related AE incidence: Paresthesia oral / Treatment-related AE incidence: Pruritus / Treatment-related AE incidence: Stomatitis / Treatment-related AE incidence: Thrombocytopenia / Treatment-related AE incidence: Tongue ulceration / Treatment-related AE incidence: Urinary tract infection / Treatment-related AEs: Patients with AE(s) / Treatment-related AEs: Total AE(s): N = 53

## CO[C@H]1C[C@@H]2CC[C@@H](C)[C@@](O)(O2)C(=O)C(=O)N2CCCC[C@H]2C(=O)O[C@H]([C@H](C)C[C@@H]2CC[C@@H](OCCO)[C@H](OC)C2)CC(=O)[C@H](C)/C=C(\C)[C@@H](O)[C@@H](OC)C(=O)[C@H](C)C[C@H](C)/C=C/C=C/C=C/1C [RAD001, (1R,9S,12S,15R,16E,18R,19R,21R,23S,24E,26E,28E,30S,32S,35R)-1,18-dihydroxy-12-{(1R)-2-[(1S,3R,4R)-4-(2-hydroxyethoxy)-3-methoxycyclohexyl]-1-methylethyl}-19,30-dimethoxy-15,17,21,23,29,35-hexamethyl-11,36-dioxa-4-aza-tricyclo[30.3.1.04,9]hexatriaconta-16,24,26,28-tetraene-2,3,10,14,20-pentaone]
[1]; 0.5 mg daily
  Percentage of subjects who seroconvert to heterologous strain A/H3N2 A/Victoria/361/11: 38%
[1]; 5 mg weekly
  Percentage of subjects who seroconvert to heterologous strain A/H3N2 A/Victoria/361/11: 39%*
[1]; 20 mg weekly
  Percentage of subjects who seroconvert to heterologous strain A/H3N2 A/Victoria/361/11: 40%*
[1]; RAD001 cohorts
  increase in HI GMT ratio for heterologous strain versus placebo: higher
[1]; pooled RAD001 cohorts, versus 20% placebo, p=0.007
  H3N2 heterologous strain seroconversion rate: 39%
[2]; 0.5 mg daily or 5 mg weekly
  primary endpoint (>=1.2-fold GMT increase relative to placebo in at least 2 of 3 strains): met the GMT primary endpoint
[2]; 20 mg weekly
  primary endpoint (>=1.2-fold GMT increase relative to placebo in at least 2 of 3 strains): not higher dose (20 mg weekly) cohort met the primary endpoint; also recorded: unlike the 20 mg weekly dose, met the GMT primary endpoint
[2]; subjects with low baseline influenza titers (<=1:40)
  increase in titers in subgroup versus ITT population: greater RAD001-associated increase in titers
[3]
  pneumococcal antibody titers compared to placebo: 6/7 serotypes were increased
[4]
  inhibition at 6 pM: 0%
  inhibition at 32 pM: 18%
  inhibition at 0.0008 µM: 62%
  inhibition at 0.004 µM: 90%
  inhibition at 0.02 µM: 95%
[5]; 0.5 mg daily
  Treatment-related AE incidence: Blood cholesterol increased: 2 (3.8%) n (%)
  Treatment-related AE incidence: Conjunctivitis: 0 n (%)
  Treatment-related AE incidence: Diarrhea: 1 (1.9%) n (%)
  Treatment-related AE incidence: Dry mouth: 0 n (%)
  Treatment-related AE incidence: Dyspepsia: 0 n (%)
  Treatment-related AE incidence: Erythema: 0 n (%)
  Treatment-related AE incidence: Fatigue: 0 n (%)
  Treatment-related AE incidence: Headache: 0 n (%)
  Treatment-related AE incidence: Insomnia: 1 (1.9%) n (%)
  Treatment-related AE incidence: Limb discomfort: 0 n (%)
  Treatment-related AE incidence: Low density lipoprotein increased: 2 (3.8%) n (%)
  Treatment-related AE incidence: Mouth ulceration: 6 (11.3%) n (%)
  Treatment-related AE incidence: Mucosal inflammation: 0 n (%)
  Treatment-related AE incidence: Neutropenia: 0 n (%)
  Treatment-related AE incidence: Oral pain: 0 n (%)
  Treatment-related AE incidence: Paresthesia oral: 2 (3.8%) n (%)
  Treatment-related AE incidence: Pruritus: 0 n (%)
  Treatment-related AE incidence: Stomatitis: 0 n (%)
  Treatment-related AE incidence: Thrombocytopenia: 0 n (%)
  Treatment-related AE incidence: Tongue ulceration: 3 (5.7%) n (%)
  Treatment-related AE incidence: Urinary tract infection: 0 n (%)
  Treatment-related AEs: Patients with AE(s): 22 (41.5%) n (%)
  Treatment-related AEs: Total AE(s): 35 n (%)
[5]; 5 mg weekly
  Treatment-related AE incidence: Blood cholesterol increased: 2 (3.8%) n (%)
  Treatment-related AE incidence: Conjunctivitis: 2 (3.8%) n (%)
  Treatment-related AE incidence: Diarrhea: 4 (7.5%) n (%)
  Treatment-related AE incidence: Dry mouth: 0 n (%)
  Treatment-related AE incidence: Dyspepsia: 3 (5.7%) n (%)
  Treatment-related AE incidence: Erythema: 2 (3.8%) n (%)
  Treatment-related AE incidence: Fatigue: 2 (3.8%) n (%)
  Treatment-related AE incidence: Headache: 2 (3.8%) n (%)
  Treatment-related AE incidence: Insomnia: 2 (3.8%) n (%)
  Treatment-related AE incidence: Limb discomfort: 2 (3.8%) n (%)
  Treatment-related AE incidence: Low density lipoprotein increased: 1 (1.9%) n (%)
  Treatment-related AE incidence: Mouth ulceration: 2 (3.8%) n (%)
  Treatment-related AE incidence: Mucosal inflammation: 0 n (%)
  Treatment-related AE incidence: Neutropenia: 0 n (%)
  Treatment-related AE incidence: Oral pain: 2 (3.8%) n (%)
  Treatment-related AE incidence: Paresthesia oral: 0 n (%)
  Treatment-related AE incidence: Pruritus: 2 (3.8%) n (%)
  Treatment-related AE incidence: Stomatitis: 0 n (%)
  Treatment-related AE incidence: Thrombocytopenia: 0 n (%)
  Treatment-related AE incidence: Tongue ulceration: 1 (1.9%) n (%)
  Treatment-related AE incidence: Urinary tract infection: 0 n (%)
  Treatment-related AEs: Patients with AE(s): 20 (37.7%) n (%)
  Treatment-related AEs: Total AE(s): 46 n (%)
[5]; 20 mg weekly
  Treatment-related AE incidence: Blood cholesterol increased: 2 (3.8%) n (%)
  Treatment-related AE incidence: Conjunctivitis: 0 n (%)
  Treatment-related AE incidence: Diarrhea: 1 (1.9%) n (%)
  Treatment-related AE incidence: Dry mouth: 2 (3.8%) n (%)
  Treatment-related AE incidence: Dyspepsia: 2 (3.8%) n (%)
  Treatment-related AE incidence: Erythema: 0 n (%)
  Treatment-related AE incidence: Fatigue: 4 (7.5%) n (%)
  Treatment-related AE incidence: Headache: 9 (17.0%) n (%)
  Treatment-related AE incidence: Insomnia: 1 (1.9%) n (%)
  Treatment-related AE incidence: Limb discomfort: 0 n (%)
  Treatment-related AE incidence: Low density lipoprotein increased: 2 (3.8%) n (%)
  Treatment-related AE incidence: Mouth ulceration: 9 (17.0%) n (%)
  Treatment-related AE incidence: Mucosal inflammation: 2 (3.8%) n (%)
  Treatment-related AE incidence: Neutropenia: 3 (5.7%) n (%)
  Treatment-related AE incidence: Oral pain: 1 (1.9%) n (%)
  Treatment-related AE incidence: Paresthesia oral: 0 n (%)
  Treatment-related AE incidence: Pruritus: 1 (1.9%) n (%)
  Treatment-related AE incidence: Stomatitis: 2 (3.8%) n (%)
  Treatment-related AE incidence: Thrombocytopenia: 2 (3.8%) n (%)
  Treatment-related AE incidence: Tongue ulceration: 0 n (%)
  Treatment-related AE incidence: Urinary tract infection: 2 (3.8%) n (%)
  Treatment-related AEs: Patients with AE(s): 27 (50.9%) n (%)
  Treatment-related AEs: Total AE(s): 109 n (%)
[5]; 6 weeks, particularly the 0.5 mg daily and 5 mg weekly dosing regimens
  tolerability: well tolerated
[5]; all cohorts
  deaths during the study: No deaths
[5]; mouth ulcers, subject treated with 20 mg weekly
  severe AEs assessed as related to RAD001: one
